According to PMC4995014, “Identification of ABC Transporter Interaction of a Novel Cyanoquinoline Radiotracer and Implications for Tumour Imaging by Positron Emission Tomography” (PLoS ONE, 2016):

Tests used:
MCF7 cells [1] = assay: SRB cell viability assay in MCF7 cells; type: cell-based; conditions: Homo sapiens, 72 h
Method: (§1) Cell viability by the sulforhodamine B (SRB) assay was used to assess cell growth and cytotoxicity of test compounds [29]. Cells were seeded at densities of 3,500 to 5,000 cells per well in 96 well plates overnight and pre-treated for 1 h with ABC transporter modulators: 10 μM fumitremorgin C (FTC; in MCF7MX and MCF7 cells), or 0.3 μM of zosuquidar (in 3T3 and 3T3-MDR1). Cells were then treated with test compounds for 72 h, at 37°C. After drug treatment, cells were fixed by addition of 50% trichloroacetic acid (TCA), and the plates washed and dried to allow staining with 0.4% solution of sulforhodamine B (Sigma) in 1% acetic acid for 30 minutes. Excess dye was removed upon washing with 1% acetic acid. Plates were dried and bound protein was solubilised upon addition of 150 μL of 10 mM Tris base buffer. Absorbance was measured at 540 nm using Thermo Multiskan-Ex plate reader. Cell viability versus compound concentration curves were plotted as a percentage of control cells. The concentration of drug that gave 50% inhibition in cell growth (GI50) was extrapolated from these curves using the sigmoid curve fit with variable slope in Prism (GraphPad Prism version 5.01, GraphPad Software, San Diego California USA). Three to six replicate wells were used for each drug concentration and experiments were carried out on three separate occasions for each compound.

Caco2 transwell assay = type: in vitro ADME, human; conditions: human; for efflux ratio at 120 min: Caco-2, no inhibitor, 10 μM cyanoquinoline or 50 μM vinblastine, read-out: efflux ratio (Papp B-A / Papp A-B)
Method: The caco2 transwell assay was performed to assess permeability. Cells were seeded at a density of 60,000 cells per well in 24 well transwell plates (Millipore, Billerica, Massachutsetts, USA), and maintained in DMEM supplemented with […] glucose (20% FBS, 1% penicillin/streptomycin, 1% glutamine) for 21 days at 37°C in 5% CO2. After 21 days the cells differentiate into enterocytes and express all three MDR proteins, ABCB1 and ABCG2 at the apical side and ABCC1 on the basal side. On day 21, cells were washed three times with Hank's Balanced Salt Solution (HBSS) (Fisher scientific, Loughborough, UK) and the trans-epithelial electric resistance (TERR) was measured using an Epithelial Voltohmmeter (EVOM) (World Precision Instruments, Sarasota, USA); only transwells with TERR of 400 Ω/cm^2 or above were used for the experiment. Cells were treated either at the apical (n = 3) or basal (n = 3) side of the transwell by addition of 10 μM of cyanoquinoline compound or 50 μM vinblastine prepared in a volume of 400 μL HBSS (compound added to apical well) or 800 μL of HBSS (added to basal well). When transport inhibitors FTC (10 μM) or zosuquidar (0.3 μM) were used, they were added to both the apical and basal wells 1 h prior to drug treatment. After 1 h pre-treatment the medium was removed and cells were treated with the compounds prepared in HBSS containing FTC or Zosuquidar.
Plates were incubated in shaker incubator at 37°C and 60 rpm for 120 min. After incubation, 200 μL aliquots from the apical and the basal wells were collected and analysed using high performance liquid chromatography (HPLC). Samples were run on a Millipore Waters HPLC system which included a 717 plus autosampler and 2487 dual wavelength absorbance detector system. The stationary phase comprised of a Phenomenex Luna C18 reverse phase column (150 X 4.6 mm; 5 μm particle size). The mobile phase comprised water (0.1% TFA) and acetonitrile (0.1% TFA) (80:20 v/v) at a flow rate of 1 mL/min for all compounds except vinblastine. For vinblastine, the stationary phase comprised a Supelcosil LC-ABZ reverse phase column (5 × 4.6 mm; 5 μm particle size). The mobile phase comprised water (0.1% formic acid) and methanol (90:10 to 10:90 v/v gradient over 20 min). Peak areas corresponding to the compounds of interest were recorded. Using standard curves the areas under the curve were converted into concentrations of compound. The permeability coefficient (Papp) was calculated using the following equation [30]: Papp = (dQ/dt)/A C0, where A is the surface area of the transwell membrane in cm^2 (= 0.33 cm^2), C0 is the drug concentration in the donor chamber at time t = 0 and dQ/dt is the rate of transfer of the compound to the receiver chamber, determined from the slope of the graph concentration (dQ) versus time (dt). Papp values corresponding to absorption and secretion were assessed and used to calculate efflux ratio. Efflux ratio =(Papp B−A)/(Papp A−B) Where Papp A-B = Papp absorption and Papp B-A = Papp secretion.
The integrity of the caco2 cell membrane was assessed for each well following the experiment by addition of a 100 μM solution of […] (Sigma) in HBSS to the apical side of the plate. The plates were placed in the shaker incubator for 1 h at 37°C and 60 rpm. Samples from the basal wells were transferred into a 96 well plate and the levels of […] were assessed by measuring with an excitation of 450 nm and an emission of 540 nm using the PerkinElmer Wallac 1420 counter.

3T3 cells [2] = assay: SRB cell viability assay in 3T3 cells; type: cell-based; conditions: Mus musculus, NIH3T3, 72 h
Method: as §1

MCF7MX cells [3] = assay: SRB cell viability assay in MCF7MX cells (ABCG2 overexpressing); type: cell-based, human; conditions: for fold increase in GI50 in the ABCG2 overexpressing cell line: GI50 MCF7MX over GI50 MCF7, without FTC; for GI50: Homo sapiens, MCF7/MX, 72 h, SRB
Method: as §1

3T3-MDR1 cells [4] = assay: SRB cell viability assay in 3T3-MDR1 cells (ABCB1 expressing); type: cell-based; conditions: GI50 3T3-MDR1 over GI50 3T3, without zosuquidar
Method: as §1

ABCB1 (MDR1) = assay: as above; type: cell-based; conditions: mouse, 3T3-MDR1 cells (ABCB1 expressing), 72 h, SRB
Method: as §1

MCF7 cells [5] = assay: Cell uptake assay in MCF7 cells; type: cell-based, human; conditions: 1 h incubation with 0.22 MBq
Method: (§2) [^18F]FED6 and [^18F]FED20 were synthesised as previously reported. To increase specific radioactivity of [^18F]FED20, we modified the synthesis by decreasing the amount of alkyne precursor from 1 mg down to 0.5 mg. While this had the desired effect of increasing the specific activity from 7.3 GBq/μmol up to 52 GBq/μmol, the conversion of the alkyne to the triazole product dropped from > 95% down to 45%. Cells were seeded in 6 well plates and [^18F]FED6 (0.22 MBq) or [^18F]FED20 (0.55 MBq or 0.74 MBq) added to each well and incubated at 37°C for 1 h. Media were then removed and cells were washed twice with PBS. The cells were trypsinised and centrifuged for 3 minutes at 2000 rpm to obtain a pellet. The cell pellet was washed once with PBS and resuspended in 200 μL of RIPA buffer. Cell lysates were transferred to gamma counting tubes and the radioactivity in the pellet was measured on a Packard Cobra II gamma counter, (Perkin-Elmer, Waltham, Massachusetts, USA). Protein concentrations of samples were evaluated using Pierce® BCA Protein Assay Kit (Thermo Scientific, Waltham, Massachusetts, USA). Data were expressed as background- and decay-corrected counts per minute (CCPMA) per μg of cellular protein.

MCF7MX cells [6] = assay: Cell uptake assay in MCF7MX cells; type: cell-based, human
Method: SiRNA transfections were carried out using ON TARGET plus-SMARTpool siRNA or non-targeting siRNA (Dharmacon, Lafayette, Louisianna, USA); ABCG2, L-009924-00-0005 and scramble (non-targeting) D-001810-10-05. Lipofectamine RNAiMAX (Invitrogen UK) was used as the transfection reagent and was prepared as indicated on the product protocol. Cells were seeded in black 96 well plates in antibiotic free media. On the day of transfection, siRNA and Lipofectamine were separately diluted in opti-MEM media, mixed in a 1 to 1 ratio and incubated at room temperature for 20 min; the siRNA-Lipofectamine complexes were then added to the cells. Fresh media containing 1% penicillin streptomycin was added to the cells after 24 h followed by Hoechst fluorescent assays at 72 h.
as §2

3T3 cells [7] = assay: Cell uptake assay in 3T3 cells; type: cell-based; conditions: 1 h incubation with 0.22 MBq
Method: as §2

H358 cells = assay: Cell uptake assay in H358 cells; type: cell-based; conditions: 1 h incubation with 0.22 MBq
Method: as §2

3T3-MDR1 cells [8] = assay: Cell uptake assay in 3T3-MDR1 cells; type: cell-based
Method: as §2

[9] = 1 h pre-treatment with 10 μM FTC
[10] = pre-treatment with 0.3 μM zosuquidar
[11] = with zosuquidar 0.3 μM (1 h pre-treatment), pre-treatment with 0.3 μM zosuquidar

Row | Compound | GI50 (MCF7 cells [1]; [9]) [µM] | GI50 (MCF7 cells [1]; without FTC) [µM] | efflux ratio at 120 min (Caco2 transwell assay) | GI50 (3T3 cells [2]; [10]) [µM] | GI50 (3T3 cells [2]; without zosuquidar) [µM] | fold increase in GI50 in the ABCG2 overexpressing cell line (MCF7MX cells [3]) [fold] | GI50 (MCF7MX cells [3]; [9]) [µM] | GI50 (MCF7MX cells [3]; without FTC) [µM] | fold increase in GI50 in the ABCB1 overexpressing cell line (3T3-MDR1 cells [4]) [fold] | GI50 at 72 h (ABCB1 (MDR1); [11]) [µM] | GI50 at 72 h (ABCB1 (MDR1); without zosuquidar) [µM] | also measured
1 | CCOc1cc2ncc(C#N)c(Nc3ccc(F)c(Cl)c3)c2cc1NC(=O)/C=C/CN(C)C [EKB-569, pelitinib, reference compound] | 2.55 ± 0.04 | 2.61 ± 0.07 | > 3 | 1.15 ± 0.6 | 1.06 ± 0.6 | 1.7 | 1.54 ± 0.06 | 4.28 ± 0.23 | 5.4 | 2.7 ± 0.8 | 5.75 ± 0.7 | –
2 | CCOc1cc2ncc(C#N)c(Nc3ccc(F)c(Cl)c3)c2cc1NC(=O)/C=C/CNCc1cn(CC[18F])nn1 [[^18F]FED6, [^18F](2E)-N-{4-[(3-chloro-4-fluorophenyl)amino]-3-cyano-7-ethoxyquinolin-6-yl}-4-({[1-(2-fluoroethyl)-1H-1,2,3-triazol-4-yl]methyl}amino)-but-2-enamide] | – | – | – | – | – | – | – | – | – | – | – | protein normalised uptake in MCF7 cells (MCF7 cells [5]): 81 CCPMA/μg of protein; uptake in MCF7MX cells following ABCG2 siRNA (MCF7MX cells [6]; 25 nM ABCG2 siRNA 72 h, 1 h incubation with 0.22 MBq): 3.5 CCPMA/μg protein; uptake in scramble siRNA transfected MCF7MX cells (MCF7MX cells [6]; 25 nM scrambled siRNA 72 h, 1 h incubation with 0.22 MBq): 0.6 CCPMA/μg protein; fold increase of uptake in MCF7MX cells following FTC pre-treatment (MCF7MX cells [6]; 10 μM FTC for 1 h): 4 fold; uptake in MCF7MX cells following FTC pre-treatment (MCF7MX cells [6]; 10 μM FTC for 1 h, 1 h incubation with 0.22 MBq): 6 CCPMA/μg protein; uptake in MCF7MX cells following gefitinib pre-treatment (MCF7MX cells [6]; 10 μM gefitinib for 1 h, 1 h incubation with 0.22 MBq): 6.3 CCPMA/μg protein; protein normalised uptake in MCF7MX cells (MCF7MX cells [6]; 1 h incubation with 0.22 MBq): 7.7 CCPMA/μg of protein; protein normalised uptake in 3T3 cells (3T3 cells [7]): 22 CCPMA/μg of protein; protein normalised uptake in H358 cells (H358 cells): 86 CCPMA/μg of protein; fold increase of uptake in 3T3-MDR1 cells following zosuquidar pre-treatment (3T3-MDR1 cells [8]; 0.3 μM zosuquidar for 1 h): 19 fold; protein normalised uptake in 3T3-MDR1 cells (3T3-MDR1 cells [8]; 1 h incubation with 0.22 MBq): 0.7 CCPMA/μg of protein
3 | CCOc1cc2ncc(C#N)c(Nc3ccc(F)c(Cl)c3)c2cc1N [FED14] | 11.2 ± 1.11 | 11.4 ± 1.36 | < 1 | 14.8 ± 0.7 | 14.8 ± 0.7 | – | 10.1 ± 0.73 | 6.53 ± 0.34 | – | 12.2 ± 0.6 | 8.7 ± 0.7 | –
4 | O=C1c2c(O)ccc(O)c2C(=O)c2c(NCCNCCO)ccc(NCCNCCO)c21 [Mitoxantrone, reference compound] | 6.62 ± 3.82 | 10.7 ± 6.18 | – | 197 ± 0.6 | 37 ± 0.8 | – | 22.8 ± 13.1 | 2500 ± 1440 | – | 57 ± 1 | 141 ± 1 | –
5 | CC[C@]1(O)C[C@@H]2CN(CCc3c([nH]c4ccccc34)[C@@](C(=O)OC)(c3cc4c(cc3OC)N(C)[C@H]3[C@@](O)(C(=O)OC)[C@H](OC(C)=O)[C@]5(CC)C=CCN6CC[C@]43[C@@H]65)C2)C1 [Vinblastine, reference compound] | 0.00536 ± 0.00063 | 0.00512 ± 0.00074 | – | 0.0015 ± 0.0012 | 0.0018 ± 0.001 | – | 0.00266 ± 0.00066 | 0.00208 ± 0.00041 | – | 0.0011 ± 0.0011 | 0.219 ± 0.0008 | efflux ratio at 120 min, 50 μM (Caco2 transwell assay; Caco-2, pre-treatment with zosuquidar, read-out: efflux (permeability) ratio after pre-treatment with zosuquidar): 1.7
6 | CCOc1cc2ncc(C#N)c(Nc3ccc(F)c(Cl)c3)c2cc1NC(=O)/C=C/CNC [FED2] | 14.8 ± 8.54 | 14.9 ± 8.6 | > 3 | 4.5 ± 0.8 | 7 ± 1.2 | 3.2 | 10.3 ± 5.95 | 27.6 ± 15.9 | 5.1 | 5.9 ± 0.6 | 36 ± 1.1 | –
